# Test results: the supplement of paper PMC9663587
# What was measured:
# [1] = compound: CC(=O)c1c(C)c2cnc(Nc3ccc(N4CCNCC4)cn3)nc2n(C2CCCC2)c1=O; assay: increase in dead-cell fraction, 72 h; higher = more death;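 note: breast cancer cell lines in 384-well plates, stained with Hoechst plus LIVE/DEAD far red dye and imaged, cells above an LDR intensity threshold counted dead, Hoechst-negative corpses included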
# [2] = compound: CCN1CCN(Cc2ccc(Nc3ncc(F)c(-c4cc(F)c5nc(C)n(C(C)C)c5c4)n3)nc2)CC1; assay: as above
# LEE011/Ribociclib [3] = compound: T1, CN(C)C(=O)c1cc2cnc(Nc3ccc(N4CCNCC4)cn3)nc2n1C1CCCC1 [LEE011/Ribociclib]; assay: as above
# Flavopiridol [4] = compound: T2, CN1CC[C@H](c2c(O)cc(O)c3c(=O)cc(-c4ccccc4Cl)oc23)[C@H](O)C1 [Flavopiridol]; assay: as above
# BSJ-03-123 = compound: CC(=O)c1c(C)c2cnc(Nc3ccc(N4CCN(CCOCCOCCOCCNC(=O)COc5cccc6c5C(=O)N(C5CCC(=O)NC5=O)C6=O)CC4)cn3)nc2n(C2CCCC2)c1=O [BSJ-03-123]; assay: GR value, 72 h; higher = faster growth (1 = untreated, <0 = killing);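 note: breast cancer and non-malignant breast epithelial lines, nine half-log doses, viable cells counted by Hoechst and LIVE/DEAD dye imaging versus time-zero plates and DMSO controls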
# [5] = compound: CC(=O)c1c(C)c2cnc(Nc3ccc(N4CCNCC4)cn3)nc2n(C2CCCC2)c1=O; assay: as above
# [6] = compound: CCN1CCN(Cc2ccc(Nc3ncc(F)c(-c4cc(F)c5nc(C)n(C(C)C)c5c4)n3)nc2)CC1; assay: as above
# Neratinib/HKI272 = compound: CCOc1cc2ncc(C#N)c(Nc3ccc(OCc4ccccn4)c(Cl)c3)c2cc1NC(=O)/C=C/CN(C)C [Neratinib/HKI272]; assay: as above
# [7] = compound: CCc1cnn2c(NCc3ccc[n+]([O-])c3)cc(N3CCCC[C@H]3CCO)nc12; assay: as above
# LEE011/Ribociclib [8] = compound: T1, LEE011/Ribociclib; assay: as above
# THZ1 = compound: CN(C)C/C=C/C(=O)Nc1ccc(C(=O)Nc2cccc(Nc3ncc(Cl)c(-c4c[nH]c5ccccc45)n3)c2)cc1 [THZ1]; assay: as above
# Flavopiridol [9] = compound: T2, Flavopiridol; assay: as above
cell line,measurement,setting,value
CAL120,increase in dead-cell fraction,[1]; 0.0003162 µM,-0.0011
same,increase in dead-cell fraction,[1]; 0.001 µM,-0.0036
same,increase in dead-cell fraction,[1]; 0.003162 µM,0.0022
same,increase in dead-cell fraction,[1]; 0.01 µM,-0.0072
same,increase in dead-cell fraction,[1]; 0.03162 µM,0.0004
same,increase in dead-cell fraction,[1]; 0.1 µM,0.0047
same,increase in dead-cell fraction,[1]; 0.3162 µM,0.0049
same,increase in dead-cell fraction,[1]; 1 µM,0.0051
same,increase in dead-cell fraction,[1]; 3.162 µM,0.0096
same,increase in dead-cell fraction,[2]; 0.001 µM,-0.0028
same,increase in dead-cell fraction,[2]; 0.003162 µM,-0.0021
same,increase in dead-cell fraction,[2]; 0.01 µM,0.0053
same,increase in dead-cell fraction,[2]; 0.03162 µM,0.0134
same,increase in dead-cell fraction,[2]; 0.1 µM,0.0398
same,increase in dead-cell fraction,[2]; 0.3162 µM,0.0603
same,increase in dead-cell fraction,[2]; 1 µM,0.146
same,increase in dead-cell fraction,[2]; 3.162 µM,0.248
same,increase in dead-cell fraction,[2]; 10 µM,0.249
same,increase in dead-cell fraction,LEE011/Ribociclib [3]; 0.001 µM,-0.0051
same,increase in dead-cell fraction,LEE011/Ribociclib [3]; 0.003162 µM,-0.0023
same,increase in dead-cell fraction,LEE011/Ribociclib [3]; 0.01 µM,0.0009
same,increase in dead-cell fraction,LEE011/Ribociclib [3]; 0.03162 µM,-0.0029
same,increase in dead-cell fraction,LEE011/Ribociclib [3]; 0.1 µM,0
same,increase in dead-cell fraction,LEE011/Ribociclib [3]; 0.3162 µM,0.001
same,increase in dead-cell fraction,LEE011/Ribociclib [3]; 1 µM,-0.0006
same,increase in dead-cell fraction,LEE011/Ribociclib [3]; 3.162 µM,0.0024
same,increase in dead-cell fraction,LEE011/Ribociclib [3]; 10 µM,0.0041
same,increase in dead-cell fraction,Flavopiridol [4]; 0.0001 µM,-0.0013
same,increase in dead-cell fraction,Flavopiridol [4]; 0.0003162 µM,0.002
same,increase in dead-cell fraction,Flavopiridol [4]; 0.001 µM,0.0027
same,increase in dead-cell fraction,Flavopiridol [4]; 0.003162 µM,-0.0004
same,increase in dead-cell fraction,Flavopiridol [4]; 0.01 µM,-0.0008
same,increase in dead-cell fraction,Flavopiridol [4]; 0.03162 µM,0.0016
same,increase in dead-cell fraction,Flavopiridol [4]; 0.1 µM,0.0004
same,increase in dead-cell fraction,Flavopiridol [4]; 0.3162 µM,0.0194
same,increase in dead-cell fraction,Flavopiridol [4]; 1 µM,0.0425
same,GR value,BSJ-03-123; 0.001 µM,0.923 GR
same,GR value,BSJ-03-123; 0.003162 µM,0.923 GR
same,GR value,BSJ-03-123; 0.01 µM,0.969 GR
same,GR value,BSJ-03-123; 0.03162 µM,0.906 GR
same,GR value,BSJ-03-123; 0.1 µM,0.861 GR
same,GR value,BSJ-03-123; 0.3162 µM,0.9 GR
same,GR value,BSJ-03-123; 1 µM,0.755 GR
same,GR value,BSJ-03-123; 3.162 µM,0.759 GR
same,GR value,BSJ-03-123; 10 µM,0.234 GR
same,GR value,[5]; 0.0003162 µM,1.02 GR
same,GR value,[5]; 0.001 µM,1.01 GR
same,GR value,[5]; 0.003162 µM,0.992 GR
same,GR value,[5]; 0.01 µM,0.953 GR
same,GR value,[5]; 0.03162 µM,0.815 GR
same,GR value,[5]; 0.1 µM,0.756 GR
same,GR value,[5]; 0.3162 µM,0.761 GR
same,GR value,[5]; 1 µM,0.743 GR
same,GR value,[5]; 3.162 µM,0.671 GR
same,GR value,[6]; 0.001 µM,0.93 GR
same,GR value,[6]; 0.003162 µM,0.85 GR
same,GR value,[6]; 0.01 µM,0.715 GR
same,GR value,[6]; 0.03162 µM,0.659 GR
same,GR value,[6]; 0.1 µM,0.609 GR
same,GR value,[6]; 0.3162 µM,0.594 GR
same,GR value,[6]; 1 µM,0.377 GR
same,GR value,[6]; 3.162 µM,-0.0553 GR
same,GR value,[6]; 10 µM,-0.138 GR
same,GR value,Neratinib/HKI272; 0.0003162 µM,0.996 GR
same,GR value,Neratinib/HKI272; 0.001 µM,1.03 GR
same,GR value,Neratinib/HKI272; 0.003162 µM,0.97 GR
same,GR value,Neratinib/HKI272; 0.01 µM,0.973 GR
same,GR value,Neratinib/HKI272; 0.03162 µM,0.999 GR
same,GR value,Neratinib/HKI272; 0.1 µM,0.876 GR
same,GR value,Neratinib/HKI272; 0.3162 µM,0.618 GR
same,GR value,Neratinib/HKI272; 1 µM,0.355 GR
same,GR value,Neratinib/HKI272; 3.162 µM,-0.262 GR
same,GR value,[7]; 0.0001 µM,1.01 GR
same,GR value,[7]; 0.0003162 µM,0.995 GR
same,GR value,[7]; 0.001 µM,1.03 GR
same,GR value,[7]; 0.003162 µM,1.01 GR
same,GR value,[7]; 0.01 µM,0.495 GR
same,GR value,[7]; 0.03162 µM,-0.0996 GR
same,GR value,[7]; 0.1 µM,-0.125 GR
same,GR value,[7]; 0.3162 µM,-0.129 GR
same,GR value,[7]; 1 µM,-0.116 GR
same,GR value,LEE011/Ribociclib [8]; 0.001 µM,0.879 GR
same,GR value,LEE011/Ribociclib [8]; 0.003162 µM,0.818 GR
same,GR value,LEE011/Ribociclib [8]; 0.01 µM,0.765 GR
same,GR value,LEE011/Ribociclib [8]; 0.03162 µM,0.809 GR
same,GR value,LEE011/Ribociclib [8]; 0.1 µM,0.703 GR
same,GR value,LEE011/Ribociclib [8]; 0.3162 µM,0.732 GR
same,GR value,LEE011/Ribociclib [8]; 1 µM,0.646 GR
same,GR value,LEE011/Ribociclib [8]; 3.162 µM,0.631 GR
same,GR value,LEE011/Ribociclib [8]; 10 µM,0.664 GR
same,GR value,THZ1; 0.0001 µM,1.02 GR
same,GR value,THZ1; 0.0003162 µM,0.971 GR
same,GR value,THZ1; 0.001 µM,0.979 GR
same,GR value,THZ1; 0.003162 µM,0.92 GR
same,GR value,THZ1; 0.01 µM,0.938 GR
same,GR value,THZ1; 0.03162 µM,0.656 GR
same,GR value,THZ1; 0.1 µM,0.324 GR
same,GR value,THZ1; 0.3162 µM,0.154 GR
same,GR value,THZ1; 1 µM,-0.159 GR
same,GR value,Flavopiridol [9]; 0.0001 µM,0.984 GR
same,GR value,Flavopiridol [9]; 0.0003162 µM,0.934 GR
same,GR value,Flavopiridol [9]; 0.001 µM,0.919 GR
same,GR value,Flavopiridol [9]; 0.003162 µM,0.917 GR
same,GR value,Flavopiridol [9]; 0.01 µM,0.901 GR
same,GR value,Flavopiridol [9]; 0.03162 µM,0.88 GR
same,GR value,Flavopiridol [9]; 0.1 µM,0.719 GR
same,GR value,Flavopiridol [9]; 0.3162 µM,0.342 GR
same,GR value,Flavopiridol [9]; 1 µM,-0.0548 GR
